Results as given in article PMC10584170, “Machine learning-based phenotypic imaging to characterise the targetable biology of Plasmodium falciparum male gametocytes for the development of transmission-blocking antimalarials” (PLOS Pathogens, 2023).
pIC50: −log10 of the molar value. Where two headings read alike, the source gives them in different places.

Key:
[1] = tested on: HepG2 cells; assay: HepG2 cytotoxicity counter-screen; conditions: cytotoxic activity against HepG2 cells
[2] = tested on: P. falciparum male gametocytes; assay: P. falciparum Dual Gamete Formation Assay (PfDGFA), male readout (exflagellation); type: cell-based, Plasmodium falciparum NF54; conditions: for Selectivity Ratio M: HepG2 Tox50 versus male IC50; for Average inhibition male (%) / % inhibition male (individual replicates) R1 / % inhibition male (individual replicates) R3 / % inhibition male (individual replicates) R4 / inhibition at 2 µM: 24h preincubation with gametocytes; for pIC50: PfDGFA, 24 h incubation with gametocytes before induction, exflagellation readout, read-out: Male IC50; for HitlevelM: number of replicates with >50% inhibition in the male readout
Outline: (§1)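 Male and female gamete formation were quantified by microscopy image analysis following 24 h incubation of mature NF54 gametocytes with compound and activation at 28°C with xanthurenic acid.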

[3] = tested on: P. falciparum female gametocytes; assay: P. falciparum Dual Gamete Formation Assay (PfDGFA), female readout (Pfs25-positive female gametes); type: cell-based, Plasmodium falciparum NF54; conditions: for Selectivity ratio F: HepG2 Tox50 versus female IC50; for Average inhibition female (%) / % inhibition female (individual replicates) R1 / % inhibition female (individual replicates) R3 / % inhibition female (individual replicates) R4 / inhibition at 2 µM: 24h preincubation with gametocytes; for pIC50: PfDGFA, 24 h incubation with gametocytes before induction, female gamete readout, read-out: Female IC50; for HitlevelF: number of replicates with >50% inhibition in the female readout
Outline: as §1

[4] = PfDGFA at 2µM, average of replicates

In the case of Cc1ccccc1OCC(O)CNC1CCC(NCC(O)COc2ccccc2C)CC1 (stereo not shown) [TCMDC-125142], the Tox50 [1] was 5.33 µM, the “Selectivity Ratio M” value [2] was 2.74 and the “Average inhibition male (%)” value [2, 4] was 76.7%. For the same compound, the “% inhibition male (individual replicates) R1” value ([2]; PfDGFA at 2µM, replicate R1) was 73.4%, the “% inhibition male (individual replicates) R3” value ([2]; PfDGFA at 2µM, replicate R3) was 61.7% and the “% inhibition male (individual replicates) R4” value ([2]; PfDGFA at 2µM, replicate R4) was 90.9%. For the same compound, the pIC50 [2] was 5.71, the HitlevelM ([2]; 2µM) was 4 and the “Selectivity ratio F” value [3] was 3.94. For the same compound, the “Average inhibition female (%)” value [3, 4] was 34.1%, the “% inhibition female (individual replicates) R1” value ([3]; PfDGFA at 2µM, replicate R1) was 36.4% and the “% inhibition female (individual replicates) R3” value ([3]; PfDGFA at 2µM, replicate R3) was 18.2%. The “% inhibition female (individual replicates) R4” value ([3]; PfDGFA at 2µM, replicate R4) was 27.5%, the pIC50 [3] was 5.87 and the HitlevelF ([3]; 2µM) was 1.
Cc1ccc(-n2c(Sc3ncnc4sccc34)nnc2N2CCCC2)cc1 [TCMDC-125247] was tested, and the Tox50 [1] was 73.14 µM, the “Selectivity Ratio M” value [2] was 192.28 and the inhibition at 2 µM ([2]; Plasmodium falciparum, PfDGFA at 2µM, average of replicates, read-out: Average inhibition male (%)) was 74.6%. It also gave an inhibition at 2 µM ([2]; Plasmodium falciparum, PfDGFA at 2µM, replicate R1, read-out: % inhibition male (individual replicates) R1) of 86.9%, an inhibition at 2 µM ([2]; Plasmodium falciparum, PfDGFA at 2µM, replicate R2, read-out: % inhibition male (individual replicates) R2) of 67.1% and an inhibition at 2 µM ([2]; Plasmodium falciparum, PfDGFA at 2µM, replicate R3, read-out: % inhibition male (individual replicates) R3) of 80.2%. The inhibition at 2 µM ([2]; Plasmodium falciparum, PfDGFA at 2µM, replicate R4, read-out: % inhibition male (individual replicates) R4) was 64.2%, the pIC50 ([2]; Plasmodium falciparum) was 6.42 and the HitlevelM ([2]; 2µM) was 4. The “Selectivity ratio F” value [3] was 296.87, the inhibition at 2 µM ([3]; Plasmodium falciparum, PfDGFA at 2µM, average of replicates, read-out: Average inhibition female (%)) was 63.5% and the inhibition at 2 µM ([3]; Plasmodium falciparum, PfDGFA at 2µM, replicate R1, read-out: % inhibition female (individual replicates) R1) was 56.4%. For the same compound, the inhibition at 2 µM ([3]; Plasmodium falciparum, PfDGFA at 2µM, replicate R2, read-out: % inhibition female (individual replicates) R2) was 85.8%, the inhibition at 2 µM ([3]; Plasmodium falciparum, PfDGFA at 2µM, replicate R3, read-out: % inhibition female (individual replicates) R3) was 26.4% and the inhibition at 2 µM ([3]; Plasmodium falciparum, PfDGFA at 2µM, replicate R4, read-out: % inhibition female (individual replicates) R4) was 85.4%. For the same compound, the pIC50 ([3]; Plasmodium falciparum) was 6.60 and the HitlevelF ([3]; 2µM) was 3.
For CCCC(N)C(=O)NC1CCN(c2c(F)c(N)c3c(=O)c(C(=O)O)cn4c3c2Oc2ccccc2-4)C1.Cl (stereo not shown) [TCMDC-125701], the Tox50 [1] was 2.99 µM, the “Average inhibition male (%)” value ([2]; 2µM, average of replicates) was 89.8% and the “% inhibition male (individual replicates) R1” value ([2]; 2µM, replicate R1) was 87.0%. The “% inhibition male (individual replicates) R3” value ([2]; 2µM, replicate R3) was 88.1%, the “% inhibition male (individual replicates) R4” value ([2]; 2µM, replicate R4) was 95.7% and the “Selectivity Ratio M” value [2] was 2.29. For the same compound, the pIC50 [2] was 5.88, the “Average inhibition female (%)” value ([3]; 2µM, average of replicates) was 53.0% and the “% inhibition female (individual replicates) R1” value ([3]; 2µM, replicate R1) was 43.9%. For the same compound, the “% inhibition female (individual replicates) R3” value ([3]; 2µM, replicate R3) was 47.1%, the “% inhibition female (individual replicates) R4” value ([3]; 2µM, replicate R4) was 70.9% and the “Selectivity ratio F” value [3] was 0.68. The pIC50 [3] was 5.35.
For S=C(NN=Cc1ccccn1)NC1CC2C=CC1C2 (stereo not shown) [TCMDC-125752], the Tox50 [1] was 0.14 µM, the “Average inhibition male (%)” value ([2]; 2µM, average of replicates) was 101.0% and the “% inhibition male (individual replicates) R1” value ([2]; 2µM, replicate R1) was 99.9%. The “% inhibition male (individual replicates) R3” value ([2]; 2µM, replicate R3) was 101.6%, the “% inhibition male (individual replicates) R4” value ([2]; 2µM, replicate R4) was 102.9% and the “Selectivity Ratio M” value [2] was 0.29. The pIC50 [2] was 6.30, the “Average inhibition female (%)” value ([3]; 2µM, average of replicates) was 59.8% and the “% inhibition female (individual replicates) R1” value ([3]; 2µM, replicate R1) was 34.4%. For the same compound, the “% inhibition female (individual replicates) R3” value ([3]; 2µM, replicate R3) was 45.5%, the “% inhibition female (individual replicates) R4” value ([3]; 2µM, replicate R4) was 74.2% and the “Selectivity ratio F” value [3] was 0.3. It also gave a pIC50 [3] of 6.32.
